# Measurements published in US10875861B1, “Therapeutic compounds” (Rutgers, The State University of New Jersey, priority 2017, dated 2020).
# Legend:
# [1] = system: BMI-1 protein; test: Inhibition of BMI-1 protein levels in U87 cells (Western blotting); type: cell-based; settings: U87 cells, 72 hours, different concentrations
# Experimental: U87 cells were treated with DMSO or different concentrations of compound B1 for 72 hours. Cells were lysed in Cell Lysis Buffer (Cell Signaling, #9803) supplemented with Protease Inhibitor Cocktail (Sigma, #P8340), sonicated briefly while on ice and spun down for 30 minutes at 4° C., after which the supernatant was collected. For each sample, 2 uL of lysate was mixed well into 198 uL de-ionized water. Next, 10 uL of this diluted sample was added to a well in a 96 well plate in quadruplets and mixed with Protein Assay Dye Reagent Concentrate (Bio-Rad, #500-0006) (which was diluted 1:5 with water). BSA standards of 25 ng, 50 ng, 100 ng, 200 ng and 250 ng were also used to the plate and mixed with the reagent. The plate was read in a plate reader at 600 nm and samples were calibrated to the standards to determine the concentration of protein. Using the NuPAGE system (Invitrogen), 25 ug of protein was mixed with NuPAGE LDS 4× Sample Buffer (#NP0007), NuPAGE 10× Reducing Agent (#NP0004) and water, mixed well and heated at 96° C. for 15 minutes to denature the protein. […] Protein signals were detected using ECL Western Blotting Substrate (Pierce, #32106) and filmed.
# U87 cells were treated with DMSO or different concentrations of the inhibitors for 72 hours. […] The plate was read in a plate reader at 600 nm and samples were calibrated to the standards to determine the concentration of protein. […]
# [2] = system: BMI-1 and ubiquitinated histone H2A in primary glioblastoma cells; test: Modulation / dynamics of BMI-1 and downstream targets in GBM cells (Western blotting); type: cell-based, human; settings: GBM cells, B compounds, 72 hours
# Experimental: Different GBM cells were treated with DMSO or different concentrations of the B compounds for 72 hours. Cells were lysed in Cell Lysis Buffer (Cell Signaling, #9803) supplemented with Protease Inhibitor Cocktail (Sigma, #P8340), spun down for 30 minutes at 4° C., after which the supernatant was collected at every time point indicated. Western blotting analysis was performed on all samples as described above. BMI-1 loss started at 6-12 h, coinciding with an upper shift and hyper-phosphorylation of BMI-1 at 12-24 h and complete depletion at 72 h.
# To study the compound dynamic activity against GBM spheres, GBMs were tested with exemplary compounds. Different GBM cells were treated with DMSO or different concentrations of the inhibitors for 72 hours. Cells were lysed in Cell Lysis Buffer (Cell Signaling, #9803) supplemented with Protease Inhibitor Cocktail (Sigma, #P8340), spun down for 30 minutes at 4° C., after which the supernatant was collected at every time point indicated. Western blotting analysis was performed on all samples as described above. […] BMI-1 loss started at 6-12 h, coinciding with an upper shift and hyper-phosphorylation of BMI-1 at 12-24 h and complete depletion at 72 h. […] This is expected since BMI-1 is known to suppress p21. BMI-1 inhibition could be reversed using phosphatase treatment, moreover, when proteasomal inhibitor is added to treated cells after 24 h, BMI-1 is locked in the phosphorylated state, therefore showing that the phosphorylation event precedes BMI-1 degradation. The phosphorylation was independent of p38 kinase activation, as when we added […], the p38 inhibitor to the cultured cells upon treatment with the BMI-1 inhibitor, the combined treatment could not reverse the effects of RU-A15 on BMI-1 inhibition.
smiles,measurement,setting,value
"COc1ccc(Nc2nc(-c3nc4ncccn4c3C)cs2)cc1 [Example B1, N-(4-methoxyphenyl)-4-(3-methylimidazo[1,2-a]pyrimidin-2-yl)thiazol-2-amine]",BMI-1 protein levels in U87 cells (Test C),[1],inhibition of BMI-1 protein levels
same,modulation of BMI-1 (Test B),[2],modulation of BMI-1
same,modulation of ubiquitinated histone H2A (Test B),[2],modulation of downstream target ubiquitinated histone H2A
